Experimental data taken from patent US4356119A, “Therapeutically active polypeptides or acid addition salts and a process for producing such compounds” (Nordisk Insulinlaboratorium, priority 1978, dated 1982).
Where a SMILES comes first, the peptide text is derived from it.

Columns and labels:
Langerhan's islets = experiment: glucose stimulated insulin secretion from isolated Langerhan's islets; assay type: cell-based; conditions: 10 mM glucose, hydrochlorides
Description: In vitro determination of the effect of the peptides on the glucose stimulated insulin secretion was carried out on Langerhan's islets isolated by collagenase technique and preincubated 24 hours at 37° C. Secretion tests were conducted with 10 mM of glucose and three peptide concentrations.
All peptides have been tested in the form of their hydrochlorides together with 10 mM of glucose, and the values are calculated as a percentage of the effect of 10 mM of glucose alone.

fat cells = experiment: insulin potentiating effect on glucose metabolism in isolated fat cells; assay type: cell-based; conditions: 50 ng/ml insulin + 0 μg/ml peptide = 100%
From the text: In vitro determination of the insulin potentiating effect of the peptides on the metabolism of glucose has given the following results, the general methods being described elsewhere (3).
All other values are based on this.

[1] = pharmacological dosages; Enk et al. (6); cited from earlier work
[2] = insulin 0 ng/ml, peptide 0.01 μg/ml
[3] = insulin 0 ng/ml, peptide 0.1 μg/ml
[4] = insulin 0 ng/ml, peptide 1 μg/ml
[5] = insulin 0 ng/ml, peptide 10 μg/ml
[6] = insulin 0 ng/ml, peptide 100 μg/ml
[7] = insulin 0.6 ng/ml, peptide 0.01 μg/ml
[8] = insulin 0.6 ng/ml, peptide 0.1 μg/ml
[9] = insulin 0.6 ng/ml, peptide 1 μg/ml
[10] = insulin 0.6 ng/ml, peptide 10 μg/ml
[11] = insulin 0.6 ng/ml, peptide 100 μg/ml
[12] = insulin 50 ng/ml, peptide 0.01 μg/ml
[13] = insulin 50 ng/ml, peptide 0.1 μg/ml
[14] = insulin 50 ng/ml, peptide 1 μg/ml
[15] = insulin 50 ng/ml, peptide 10 μg/ml
[16] = insulin 50 ng/ml, peptide 100 μg/ml

glu-leu-ser-arg-leu-arg-asp-ser-ala-arg-OMe, 4HCl [compound 4]
glucose stimulated insulin secretion, percentage of the effect of 10 mM of glucose alone (Langerhan's islets): 41%
glucose stimulated insulin secretion, percentage of the effect of 10 mM of glucose alone (Langerhan's islets; peptide 5 mmolar): 9%
glucose stimulated insulin secretion, percentage of the effect of 10 mM of glucose alone (Langerhan's islets; peptide 5 × 10^-2 mmolar): 96%

glu-leu-ser-arg-leu-arg-OMe, 3HCl [compound 2]
glucose stimulated insulin secretion, percentage of the effect of 10 mM of glucose alone (Langerhan's islets): 73%
glucose stimulated insulin secretion, percentage of the effect of 10 mM of glucose alone (Langerhan's islets; peptide 5 mmolar): 113%
glucose stimulated insulin secretion, percentage of the effect of 10 mM of glucose alone (Langerhan's islets; peptide 5 × 10^-2 mmolar): 66%
glucose metabolism in fat cells (fat cells; [2]): 20%
glucose metabolism in fat cells (fat cells; [3]): 20%
glucose metabolism in fat cells (fat cells; [4]): 21%
glucose metabolism in fat cells (fat cells; [5]): 20%
glucose metabolism in fat cells (fat cells; [6]): 15%
glucose metabolism in fat cells (fat cells; [7]): 83%
glucose metabolism in fat cells (fat cells; [8]): 88%
glucose metabolism in fat cells (fat cells; [9]): 86%
glucose metabolism in fat cells (fat cells; [10]): 85%
glucose metabolism in fat cells (fat cells; [11]): 55%
glucose metabolism in fat cells (fat cells; [12]): 114%
glucose metabolism in fat cells (fat cells; [13]): 112%
glucose metabolism in fat cells (fat cells; [14]): 108%
glucose metabolism in fat cells (fat cells; [15]): 112%
glucose metabolism in fat cells (fat cells; [16]): 70%

COC(=O)[C@H](CCCNC(=N)N)NC(=O)[C@H](C)NC(=O)[C@H](CO)NC(=O)[C@@H](N)CC(=O)O [compound 3, asp-ser-ala-arg-OMe, 2HCl] (H-DSAR-OMe)
glucose metabolism in fat cells (fat cells; [2]): 8%
glucose metabolism in fat cells (fat cells; [3]): 8%
glucose metabolism in fat cells (fat cells; [4]): 8%
glucose metabolism in fat cells (fat cells; [5]): 8%
glucose metabolism in fat cells (fat cells; [6]): 16%
glucose metabolism in fat cells (fat cells; [7]): 90%
glucose metabolism in fat cells (fat cells; [8]): 85%
glucose metabolism in fat cells (fat cells; [9]): 80%
glucose metabolism in fat cells (fat cells; [10]): 80%
glucose metabolism in fat cells (fat cells; [11]): 100%
glucose metabolism in fat cells (fat cells; [12]): 114%
glucose metabolism in fat cells (fat cells; [13]): 112%
glucose metabolism in fat cells (fat cells; [14]): 108%
glucose metabolism in fat cells (fat cells; [15]): 108%
glucose metabolism in fat cells (fat cells; [16]): 124%

COC(=O)[C@H](CCCNC(=N)N)NC(=O)CNC(=O)CNC(=O)CNC(=O)[C@@H](N)CCC(=O)O [compound 6, glugly-gly-gly-arg-OMe, 2HCl] (H-EGGGR-OMe)
glucose metabolism in fat cells (fat cells; [6]): 10%
glucose metabolism in fat cells (fat cells; [11]): 89%
glucose metabolism in fat cells (fat cells; [16]): 121%

secretin
blood sugar level [1]: without affecting the blood sugar level
secretion of insulin [1]: potentiate secretion of insulin

glu-leu-ser-arg-OMe, 2HCl [compound 1]
glucose stimulated insulin secretion, percentage of the effect of 10 mM of glucose alone (Langerhan's islets): 59%
glucose stimulated insulin secretion, percentage of the effect of 10 mM of glucose alone (Langerhan's islets; peptide 5 mmolar): 51%
glucose stimulated insulin secretion, percentage of the effect of 10 mM of glucose alone (Langerhan's islets; peptide 5 × 10^-2 mmolar): 76%
glucose metabolism in fat cells (fat cells; [2]): 22%
glucose metabolism in fat cells (fat cells; [3]): 22%
glucose metabolism in fat cells (fat cells; [4]): 22%
glucose metabolism in fat cells (fat cells; [5]): 22%
glucose metabolism in fat cells (fat cells; [6]): 22%
glucose metabolism in fat cells (fat cells; [7]): 94%
glucose metabolism in fat cells (fat cells; [8]): 90%
glucose metabolism in fat cells (fat cells; [9]): 88%
glucose metabolism in fat cells (fat cells; [10]): 91%
glucose metabolism in fat cells (fat cells; [11]): 108%
glucose metabolism in fat cells (fat cells; [12]): 118%
glucose metabolism in fat cells (fat cells; [13]): 113%
glucose metabolism in fat cells (fat cells; [14]): 112%
glucose metabolism in fat cells (fat cells; [15]): 113%
glucose metabolism in fat cells (fat cells; [16]): 126%
